Assay results from US9694016B2 (Novartis AG, priority 2013, dated 2017).

The compounds below were run against b-Raf (V600E) (Homo sapiens (Human), UniProt P15056, V600E). Conditions: read-out: b-Raf IC-50; AlphaScreen, 60 min pre-incubation, 3 hours reaction.
b-Raf (V600E), sequence (P15056 whole entry V600E): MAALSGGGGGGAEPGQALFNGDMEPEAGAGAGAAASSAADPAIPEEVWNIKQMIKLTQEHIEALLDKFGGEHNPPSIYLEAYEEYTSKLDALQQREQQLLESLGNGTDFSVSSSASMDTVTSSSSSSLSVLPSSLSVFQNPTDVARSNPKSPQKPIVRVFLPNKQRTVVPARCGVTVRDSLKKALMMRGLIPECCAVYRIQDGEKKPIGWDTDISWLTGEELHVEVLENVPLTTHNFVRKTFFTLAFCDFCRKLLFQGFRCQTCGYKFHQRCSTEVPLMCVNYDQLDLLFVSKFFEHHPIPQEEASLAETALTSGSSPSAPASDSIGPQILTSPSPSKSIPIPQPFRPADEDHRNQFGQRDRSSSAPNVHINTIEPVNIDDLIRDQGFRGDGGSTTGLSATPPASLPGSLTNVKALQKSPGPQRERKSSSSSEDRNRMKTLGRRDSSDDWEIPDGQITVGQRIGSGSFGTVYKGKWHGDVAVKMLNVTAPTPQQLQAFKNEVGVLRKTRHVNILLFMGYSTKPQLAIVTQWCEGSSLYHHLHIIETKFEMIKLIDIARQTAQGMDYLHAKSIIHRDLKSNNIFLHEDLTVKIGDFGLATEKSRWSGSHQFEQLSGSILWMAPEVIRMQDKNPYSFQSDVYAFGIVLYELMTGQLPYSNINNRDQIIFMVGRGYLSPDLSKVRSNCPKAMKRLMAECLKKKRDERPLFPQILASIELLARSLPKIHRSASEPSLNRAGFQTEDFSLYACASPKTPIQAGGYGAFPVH

Row | SMILES | IC50 [nM]
1 | Cc1ncc(NC(=O)c2cccc(C(F)F)c2)cc1-c1cc(N2CCOCC2)n2nccc2n1 [Example 804, 3-(difluoromethyl)-N-(6-methyl-5-(7-morpholinopyrazolo[1,5-a]pyrimidin-5-yl)pyridin-3-yl)benzamide] | 0.8
2 | Cc1ccc(NC(=O)c2ccnc(C(F)F)c2)cc1-c1cc(N2CCOCC2)n2nccc2n1 [Example 805, 2-(difluoromethyl)-N-(4-methyl-3-(7-morpholinopyrazolo[1,5-a]pyrimidin-5-yl)phenyl)isonicotinamide] | 0.4
3 | Cc1ccc(NC(=O)c2ccnc(S(C)(=O)=O)c2)cc1-c1cc(N2CCOCC2)n2nccc2n1 [Example 806] | 1.1
4 | Cc1ncc(NC(=O)c2ccnc(S(C)(=O)=O)c2)cc1-c1cc(N2CCOCC2)n2nccc2n1 [Example 807, N-(6-methyl-5-(7-morpholinopyrazolo[1,5-a]pyrimidin-5-yl)pyridin-3-yl)-2-(methylsulfonyl)isonicotinamide] | 8.8
5 | Cc1ncc(NC(=O)c2cc(C(F)(F)F)ccn2)cc1-c1cc(N2CCOCC2)n2nccc2n1 [Example 810, N-(6-methyl-5-(7-morpholinopyrazolo[1,5-a]pyrimidin-5-yl)pyridin-3-yl)-4-(trifluoromethyl)picolinamide] | 1.4
6 | Cc1ccc(NC(=O)c2ccnc(C(C)(C)O)c2)cc1-c1cc(N2CCOCC2)c2nccn2n1 [Example 841, 2-(2-hydroxypropan-2-yl)-N-(4-methyl-3-(8 morpholinoimidazo[1,2-b]pyridazin-6-yl)phenyl)isonicotinamide] | 1.7
7 | Cc1ccc(NC(=O)c2ccnc(C(C)C)c2)cc1-c1cc(N2CCOCC2)c2nccn2n1 [Example 842, 2-isopropyl-N-(4-methyl-3-(8-morpholinoimidazo[1,2-b]pyridazin-6-yl)phenyl)isonicotinamide] | 1.3
8 | Cc1ccc(NC(=O)c2ccnc(C(C)(F)F)c2)cc1-c1cc(N2CCOCC2)c2nccn2n1 [Example 843, 2-(1,1-difluoroethyl)-N-(4-methyl-3-(8-morpholinoimidazo[1,2-b]pyridazin-6-yl)phenyl)isonicotinamide] | 0.8
9 | Cc1ccc(NC(=O)c2ccnc(C(C)(C)C#N)c2)cc1-c1cc(N2CCOCC2)c2nccn2n1 [Example 844, 2-(2-cyanopropan-2-yl)-N-(4-methyl-3-(8-morpholinoimidazo[1,2-b]pyridazin-6-yl)phenyl)isonicotinamide] | 1.7
10 | Cc1ccc(NC(=O)c2ccnc(C(C)(C)C)c2)cc1-c1cc(N2CCOCC2)c2nccn2n1 [Example 845, 2-(tert-butyl)-N-(4-methyl-3-(8-morpholinoimidazo[1,2-b]pyridazin-6-yl)phenyl)isonicotinamide] | 0.9
11 | Cc1ccc(NC(=O)c2cccc(C(C)(C)C#N)c2)cc1-c1cc(N2CCOCC2)c2nccn2n1 [Example 846, 3-(2-cyanopropan-2-yl)-N-(4-methyl-3-(8-morpholinoimidazo[1,2-b]pyridazin-6-yl)phenyl)benzamide] | 0.6
12 | Cc1ccc(NC(=O)c2cccc(C(F)F)c2)cc1-c1cc(N2CCOCC2)c2nccn2n1 [Example 847, 3-(difluoromethyl)-N-(4-methyl-3-(8-morpholinoimidazo[1,2-b]pyridazin-6-yl)phenyl)benzamide] | 0.2

Results, then the compound that gave them:

Row | IC50 [nM] | SMILES
13 | 0.2 | Cc1ccc(NC(=O)c2cccc(C(F)(F)F)c2)cc1-c1nc(N2CCOCC2)c2sccc2n1 [Example 829, N-(4-methyl-3-(4-morpholinothieno[3,2-d]pyrimidin-2-yl)phenyl)-3-(trifluoromethyl)benzamide]
14 | 0.6 | Cc1ccc(NC(=O)c2cccc(C(F)(F)F)c2)cc1-c1nc(N2CCOCC2)c2[nH]ccc2n1 [Example 830, N-(4-methyl-3-(4-morpholino-5H-pyrrolo[3,2-d]pyrimidin-2-yl)phenyl)-3-(trifluoromethyl)benzamide]
15 | 1.7 | Cc1ccc(NC(=O)c2cccc(C(F)(F)F)c2)cc1-c1nc(N2CCOCC2)c2cccnc2n1 [Example 833, N-(4-methyl-3-(4-morpholinopyrido[2,3-d]pyrimidin-2-yl)phenyl)-3-(trifluoromethyl)benzamide]
16 | 2.1 | Cc1ccc(NC(=O)c2cccc(C(F)(F)F)c2)cc1-c1nc2c(c(N3CCOCC3)n1)CNCC2 [Example 835, N-(4-methyl-3-(4-morpholino-5,6,7,8-tetrahydropyrido[4,3-d]pyrimidin-2-yl)phenyl)-3-(trifluoromethyl)benzamide]
17 | 3.1 | Cc1ccc(NC(=O)c2cccc(C(F)(F)F)c2)cc1-c1nc2c(c(N3CCOCC3)n1)CNC2 [Example 836, N-(4-methyl-3-(4-morpholino-6,7-dihydro-5H-pyrrolo[3,4-d]pyrimidin-2-yl)phenyl)-3-(trifluoromethyl)benzamide]
18 | 0.2 | Cc1ccc(NC(=O)c2cccc(C(F)(F)F)c2)cc1-c1nc(N2CCOCC2)c2c(cnn2C)n1 [Example 837, N-(4-methyl-3-(1-methyl-7-morpholino-1H-pyrazolo[4,3-d]pyrimidin-5-yl)phenyl)-3-(trifluoromethyl)benzamide]
19 | 0.9 | Cc1ccc(NC(=O)c2cccc(C(F)(F)F)c2)cc1-c1nc(N2CCOCC2)c2occc2n1 [Example 838, N-(4-methyl-3-(4-morpholinofuro[3,2-d]pyrimidin-2-yl)phenyl)-3-(trifluoromethyl)benzamide]
20 | 0.9 | Cc1ccc(NC(=O)c2cccc(C(F)(F)F)c2)cc1-c1nc(N2CCOCC2)c2ncsc2n1 [Example 839, N-(4-methyl-3-(7-morpholinothiazolo[5,4-d]pyrimidin-5-yl)phenyl)-3-(trifluoromethyl)benzamide]
21 | 0.6 | Cc1ccc(NC(=O)c2cccc(C(F)(F)F)c2)cc1-c1nc(N2CCOCC2)c2cnn(C)c2n1 [Example 840, N-(4-methyl-3-(1-methyl-4-morpholino-1H-pyrazolo[3,4-d]pyrimidin-6-yl)phenyl)-3-(trifluoromethyl)benzamide]

Same assay, conditions: read-out: b-Raf IC-50; AlphaScreen, 60 min pre-incubation, reaction 3 hours at room temperature

Row | SMILES | IC50 [nM]
22 | Cc1ccc(NC(=O)c2ccnc(C(F)F)c2)cc1-c1cc(N2CCOCC2)c2nccn2c1 [Example 850, 2-(difluoromethyl)-N-(4-methyl-3-(8-morpholinoimidazo[1,2-a]pyridin-6-yl)phenyl)isonicotinamide] | 0.6
23 | Cc1ccc(NC(=O)c2ccnc(S(C)(=O)=O)c2)cc1-c1cc(N2CCOCC2)c2nccn2c1 [Example 851] | 0.9
24 | Cc1ccc(NC(=O)c2ccnc(C(C)(C)C#N)c2)cc1-c1nc2c(c(N3CCOCC3)n1)S(=O)(=O)CC2 [Example 855, 2-(2-cyanopropan-2-yl)-N-(4-methyl-3-(4-morpholino-5,5-dioxido-6,7-dihydrothieno[3,2-d]pyrimidin-2-yl)phenyl)isonicotinamide] | 2.3
25 | Cc1ccc(NC(=O)c2ccnc(C(C)(C)C#N)c2)cc1-c1cn2ccnc2c(N2CCOCC2)n1 [Example 860, 2-(2-cyanopropan-2-yl)-N-(4-methyl-3-(8-morpholinoimidazo[1,2-a]pyrazin-6-yl)phenyl)isonicotinamide] | 11.6
26 | Cc1ccc(NC(=O)c2ccnc(C(C)(C)C#N)c2)cc1-c1nc2c(c(N3CCOCC3)n1)CN(C(=O)OC(C)(C)C)CC2 [Example 864, tert-butyl 2-(5-(2-(2-cyanopropan-2-yl)isonicotinamido)-2-methylphenyl)-4-morpholino-7,8-dihydropyrido[4,3-d]pyrimidine-6(5H)-carboxylate] | 70.2
27 | Cc1ccc(NC(=O)c2ccnc(C(C)(C)C#N)c2)cc1-c1nc2c(c(N3CCOCC3)n1)CCNC2 [Example 865, 2-(2-cyanopropan-2-yl)-N-(4-methyl-3-(4-morpholino-5,6,7,8-tetrahydropyrido[3,4-d]pyrimidin-2-yl)phenyl)isonicotinamide] | 3700

Second part, the compound after the results:

Row | IC50 [nM] | SMILES
28 | 3.8 | Cc1ccc(NC(=O)c2ccnc(C(F)(F)F)c2)cc1-c1cc(N2CCOCC2)c2nccn2c1 [Example 849, N-(4-methyl-3-(8-morpholinoimidazo[1,2-a]pyridin-6-yl)phenyl)-2-(trifluoromethyl)isonicotinamide]
29 | 0.7 | Cc1ccc(NC(=O)c2cnnc(C(F)(F)F)c2)cc1-c1cc(N2CCOCC2)c2nccn2c1 [Example 852]
30 | 0.8 | Cc1ccc(NC(=O)c2cccc(C(F)F)c2)cc1-c1nc2c(c(N3CCOCC3)n1)S(=O)(=O)CC2 [Example 854, 3-(difluoromethyl)-N-(4-methyl-3-(4-morpholino-5,5-dioxido-6,7-dihydrothieno[3,2-d]pyrimidin-2-yl)phenyl)benzamide]
31 | 5.5 | Cc1ccc(NC(=O)c2ccnc(C(F)F)c2)cc1-c1nc2c(c(N3CCOCC3)n1)S(=O)(=O)CC2 [Example 856, 2-(difluoromethyl)-N-(4-methyl-3-(4-morpholino-5,5-dioxido-6,7-dihydrothieno[3,2-d]pyrimidin-2-yl)phenyl)isonicotinamide]
32 | 0.4 | Cc1ccc(NC(=O)c2cccc(C(F)(F)F)c2)cc1-c1nc2c(c(N3CCOCC3)n1)S(=O)(=O)CC2 [Example 857, N-(4-methyl-3-(4-morpholino-5,5-dioxido-6,7-dihydrothieno[3,2-d]pyrimidin-2-yl)phenyl)-3-(trifluoromethyl)benzamide]
33 | 2.5 | Cc1ccc(NC(=O)c2ccnc(C(C)(C)C#N)c2)cc1-c1nc(N2CCOCC2)c2c(cnn2C)n1 [Example 861, 2-(2-cyanopropan-2-yl)-N-(4-methyl-3-(1-methyl-7-morpholino-1H-pyrazolo[4,3-d]pyrimidin-5-yl)phenyl)isonicotinamide]
34 | 0.9 | Cc1ccc(NC(=O)c2ccnc(C(C)(C)C#N)c2)cc1-c1nc(N2CCOCC2)c2sccc2n1 [Example 862, 2-(2-cyanopropan-2-yl)-N-(4-methyl-3-(4-morpholinothieno[3,2-d]pyrimidin-2-yl)phenyl)isonicotinamide]
35 | 2.8 | Cc1ccc(NC(=O)c2ccnc(C(C)(C)C#N)c2)cc1-c1nc(N2CCOCC2)c2[nH]ccc2n1 [Example 863, 2-(2-cyanopropan-2-yl)-N-(4-methyl-3-(4-morpholino-5H-pyrrolo[3,2-d]pyrimidin-2-yl)phenyl)isonicotinamide]
